Results reported in the NIST ThermoML archive (doi:10.1021/je049579x).
Values joined by “and” are separate entries in the source; they are usually repeats but may differ in a detail not shown here. Identical values can stand only once. ± gives the expanded uncertainty stated by the source.

Settings: Crystal, Torsion effusion method

[Br-].[Br-].[Br-].[Lu+3] [lutetium tribromide]
Settings	vapor or sublimation pressure
903 K	6.3e-05 ± 1.3e-05 kPa
908 K	7.9e-05 ± 1.1e-05 kPa
909 K	9.3e-05 ± 1.1e-05 kPa
910 K	6.3e-05 ± 9e-06 kPa and 9.3e-05 ± 9e-06 kPa
914 K	9.3e-05 ± 1.3e-05 kPa
917 K	9.3e-05 ± 2.2e-05 kPa
918 K	0.000141 ± 2.3e-05 kPa and 0.000126 ± 2.3e-05 kPa
919 K	0.000126 ± 1.9e-05 kPa
920 K	0.00011 ± 1.1e-05 kPa
921 K	9.3e-05 ± 1e-05 kPa and 0.00011 ± 1.1e-05 kPa
924 K	0.000141 ± 3.1e-05 kPa
926 K	0.000126 ± 2.6e-05 kPa and 0.000191 ± 2.6e-05 kPa
927 K	0.000191 ± 2.6e-05 kPa
929 K	0.000204 ± 1.7e-05 kPa
930 K	0.000158 ± 1.8e-05 kPa and 0.000126 ± 1.7e-05 kPa
931 K	0.000158 ± 4.3e-05 kPa
935 K	0.000191 ± 1.3e-05 kPa
936 K	0.000234 ± 4.1e-05 kPa
937 K	0.000282 ± 4e-05 kPa
938 K	0.000251 ± 4.2e-05 kPa and 0.000219 ± 4.2e-05 kPa and 0.000282 ± 4.2e-05 kPa
939 K	0.000282 ± 4.3e-05 kPa
940 K	0.000191 ± 4.7e-05 kPa
946 K	0.000316 ± 5.8e-05 kPa
947 K	0.00038 ± 5.7e-05 kPa
948 K	0.00038 ± 5.9e-05 kPa [middle of 4 runs]
950 K	0.000407 ± 6.2e-05 kPa and 0.000282 ± 5.7e-05 kPa
956 K	0.000427 ± 7.5e-05 kPa and 0.000437 ± 7.4e-05 kPa and 0.000501 ± 7.2e-05 kPa
957 K	0.000562 ± 7.1e-05 kPa
958 K	0.00049 ± 7.1e-05 kPa and 0.000468 ± 7.1e-05 kPa
960 K	0.000603 ± 7.3e-05 kPa and 0.000427 ± 6.3e-05 kPa
965 K	0.000676 ± 9.7e-05 kPa
966 K	0.000617 ± 9.7e-05 kPa and 0.000794 ± 9.4e-05 kPa and 0.000724 ± 9.5e-05 kPa
967 K	0.000661 ± 9.3e-05 kPa and 0.000794 ± 9.5e-05 kPa
968 K	0.000661 ± 8.9e-05 kPa
969 K	0.000794 ± 5.8e-05 kPa and 0.000617 ± 5.2e-05 kPa
973 K	0.000912 ± 0.0001 kPa
975 K	0.000813 ± 0.00013 kPa
976 K	0.001096 ± 0.00013 kPa and 0.001047 ± 0.00013 kPa
977 K	0.001072 ± 0.00017 kPa
978 K	0.000912 ± 0.0002 kPa and 0.000933 ± 0.0002 kPa
979 K	0.001096 ± 0.00019 kPa and 0.000912 ± 0.00019 kPa
981 K	0.001175 ± 4.2e-05 kPa
984 K	0.001445 ± 0.00017 kPa
986 K	0.001202 ± 0.00023 kPa and 0.001413 ± 0.00022 kPa and 0.001445 ± 0.00022 kPa
987 K	0.001318 ± 0.00023 kPa
988 K	0.001288 ± 0.00022 kPa
989 K	0.001514 ± 0.00019 kPa and 0.00123 ± 0.00019 kPa and 0.001585 ± 0.00019 kPa
995 K	0.00195 ± 0.00028 kPa and 0.001778 ± 0.00029 kPa
996 K	0.001585 ± 0.00029 kPa and 0.00195 ± 0.00028 kPa
997 K	0.00195 ± 0.00028 kPa and 0.001778 ± 0.00028 kPa
998 K	0.001778 ± 0.00027 kPa and 0.001622 ± 0.00026 kPa
999 K	0.002089 ± 0.00027 kPa
1004 K	0.00257 ± 0.00029 kPa and 0.002399 ± 0.00029 kPa
1006 K	0.002512 ± 0.00035 kPa and 0.002089 ± 0.00035 kPa and 0.00257 ± 0.00035 kPa
1007 K	0.002188 ± 0.00033 kPa and 0.002399 ± 0.00034 kPa
1008 K	0.002399 ± 0.00032 kPa
1009 K	0.002818 ± 0.0002 kPa
1013 K	0.003311 ± 0.00034 kPa and 0.00309 ± 0.00034 kPa
1016 K	0.003162 ± 0.00036 kPa
1017 K	0.002951 ± 0.00034 kPa and 0.003388 ± 0.00036 kPa
1018 K	0.003236 ± 0.0003 kPa and 0.00302 ± 0.0003 kPa and 0.003548 ± 0.0003 kPa
1023 K	0.004074 ± 0.00026 kPa
1026 K	0.004074 ± 0.00082 kPa
1027 K	0.003981 ± 0.00082 kPa and 0.003802 ± 0.00082 kPa and 0.005012 ± 0.0008 kPa
1028 K	0.00389 ± 0.00092 kPa
1038 K	0.007244 ± 0.0013 kPa

[Cl][Lu]([Cl])[Cl] [lutetium trichloride]
Settings	vapor or sublimation pressure
942 K	6.3e-05 ± 6e-06 kPa
945 K	7.9e-05 ± 1.6e-05 kPa
946 K	7.9e-05 ± 1.6e-05 kPa
953 K	7.9e-05 ± 1e-05 kPa
955 K	0.000126 ± 1.5e-05 kPa
958 K	0.00011 ± 2.5e-05 kPa
959 K	0.000126 ± 2.1e-05 kPa
963 K	0.000141 ± 1.9e-05 kPa
968 K	0.000158 ± 2.5e-05 kPa
969 K	0.000191 ± 2.4e-05 kPa
970 K	0.000158 ± 2.4e-05 kPa
976 K	0.000219 ± 3.4e-05 kPa
978 K	0.000251 ± 5.4e-05 kPa
981 K	0.000251 ± 4.4e-05 kPa
982 K	0.000316 ± 4.2e-05 kPa
984 K	0.000347 ± 3.9e-05 kPa
991 K	0.00038 ± 3.5e-05 kPa and 0.000407 ± 3.5e-05 kPa
992 K	0.00038 ± 3.4e-05 kPa
998 K	0.000468 ± 7.9e-05 kPa and 0.00055 ± 7.9e-05 kPa
1001 K	0.000603 ± 8.2e-05 kPa
1002 K	0.000562 ± 8.3e-05 kPa
1004 K	0.000617 ± 9.3e-05 kPa and 0.000575 ± 9.4e-05 kPa
1005 K	0.000631 ± 9.3e-05 kPa
1012 K	0.000794 ± 0.00012 kPa
1013 K	0.000912 ± 0.00011 kPa
1016 K	0.000933 ± 0.00013 kPa
1017 K	0.001 ± 0.00014 kPa and 0.000912 ± 0.00015 kPa
1018 K	0.000977 ± 0.00012 kPa
1024 K	0.00123 ± 0.00017 kPa
1029 K	0.001445 ± 0.00023 kPa
1030 K	0.001445 ± 0.00023 kPa
1031 K	0.001622 ± 0.00022 kPa
1032 K	0.001622 ± 0.00022 kPa
1033 K	0.00166 ± 0.00022 kPa and 0.001778 ± 0.00022 kPa
1042 K	0.002239 ± 0.00029 kPa and 0.002188 ± 0.00029 kPa and 0.002138 ± 0.00028 kPa
1046 K	0.00263 ± 0.00029 kPa
1047 K	0.002692 ± 0.00034 kPa
1048 K	0.002818 ± 0.00034 kPa
1050 K	0.002951 ± 0.00035 kPa
1051 K	0.002951 ± 0.00034 kPa
1053 K	0.003162 ± 0.00032 kPa
1058 K	0.003631 ± 0.0004 kPa
1059 K	0.003548 ± 0.0004 kPa
1060 K	0.003715 ± 0.0004 kPa and 0.003981 ± 0.0004 kPa
1062 K	0.00389 ± 0.00049 kPa
1066 K	0.004467 ± 0.0006 kPa
1071 K	0.00537 ± 0.00072 kPa and 0.004898 ± 0.00034 kPa
1075 K	0.005495 ± 0.00046 kPa and 0.00537 ± 0.0004 kPa
